Test results from paper PMC11558128 (Advanced Science, 2024).
Positions of bridges follow the written chain, without caps; N, C: chain ends. Residues, ends and D or L forms follow the SMILES beside them.

Target: T1, rKv4.2 D284K (Rattus norvegicus, UniProt Q63881, D284K)
T1 construct: expressed in transfected cells; host or cells: HEK293T
T1 sequence (Q63881 1-630 D284K): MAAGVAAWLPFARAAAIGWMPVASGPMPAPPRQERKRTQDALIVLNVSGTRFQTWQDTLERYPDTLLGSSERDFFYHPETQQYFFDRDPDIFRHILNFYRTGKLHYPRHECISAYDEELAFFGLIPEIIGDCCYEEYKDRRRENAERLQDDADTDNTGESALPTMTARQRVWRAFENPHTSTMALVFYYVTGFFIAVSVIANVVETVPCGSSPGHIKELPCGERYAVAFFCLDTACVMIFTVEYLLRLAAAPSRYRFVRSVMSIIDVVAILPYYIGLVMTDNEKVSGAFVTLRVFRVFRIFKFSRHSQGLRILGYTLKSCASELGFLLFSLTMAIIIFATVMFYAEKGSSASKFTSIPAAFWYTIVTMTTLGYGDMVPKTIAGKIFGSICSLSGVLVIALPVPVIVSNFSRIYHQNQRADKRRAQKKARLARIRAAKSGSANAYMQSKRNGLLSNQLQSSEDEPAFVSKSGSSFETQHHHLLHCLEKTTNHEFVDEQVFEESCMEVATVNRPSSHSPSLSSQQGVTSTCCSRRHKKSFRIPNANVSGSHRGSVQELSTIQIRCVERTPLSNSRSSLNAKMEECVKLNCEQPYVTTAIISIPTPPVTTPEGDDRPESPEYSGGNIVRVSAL
Assay: cell-based
Details: mean ± SEM

Structure (SMILES)	IC50	IC50 (SEM)
CC[C@H](C)[C@H](NC(=O)[C@H](CCC(=O)O)NC(=O)[C@H](Cc1ccc(O)cc1)NC(=O)[C@H](CCCCN)NC(=O)[C@@H]1CSSC[C@@H]2NC(=O)[C@H](CCC(N)=O)NC(=O)[C@H](CC(=O)O)NC(=O)[C@H](CC(N)=O)NC(=O)[C@H](CO)NC(=O)[C@@H]3CCCN3C(=O)[C@H](CC(N)=O)NC(=O)[C@@H]3CSSC[C@H](NC(=O)[C@H](C(C)C)NC(=O)[C@H](CC(C)C)NC(=O)[C@H](CC(N)=O)NC(=O)[C@H](CO)NC(=O)[C@H](CO)NC(=O)[C@H](CCCCN)NC(=O)[C@H](CSSC[C@H](NC(=O)[C@@H](N)CCC(=O)O)C(=O)N[C@@H](CC(C)C)C(=O)NCC(=O)N[C@@H](Cc4ccccc4)C(=O)NCC(=O)N[C@@H](CCCCN)C(=O)NCC(=O)N3)NC2=O)C(=O)N[C@@H](CO)C(=O)N[C@@H](CCCNC(=N)N)C(=O)N[C@@H](CCCCN)C(=O)N[C@@H](Cc2c[nH]cn2)C(=O)N[C@@H](CCCNC(=N)N)C(=O)N[C@@H](Cc2c[nH]c3ccccc23)C(=O)N1)C(N)=O [HNTX-IV]	> 20 µM	
CC(C)C[C@@H]1NC(=O)[C@H](Cc2c[nH]c3ccccc23)NC(=O)[C@H](Cc2ccc(O)cc2)NC(=O)[C@H](CCCNC(=N)N)NC(=O)[C@@H](NC(=O)[C@@H](N)CCC(=O)O)CSSC[C@@H]2NC(=O)[C@@H]3CSSC[C@@H](C(=O)N[C@H](C(=O)N[C@@H](Cc4c[nH]c5ccccc45)C(=O)N[C@@H](CC(=O)O)C(=O)N[C@@H](Cc4c[nH]c5ccccc45)C(=O)N[C@H](C(=O)N[C@@H](Cc4ccccc4)C(N)=O)[C@@H](C)O)C(C)C)NC(=O)[C@H](Cc4c[nH]c5ccccc45)NC(=O)CNC(=O)[C@H](Cc4c[nH]cn4)NC(=O)[C@H](CCCCN)NC(=O)[C@@H]4CCCN4C(=O)[C@H](CO)NC(=O)[C@H](CSSC[C@H](NC(=O)[C@H]([C@@H](C)O)NC(=O)CNC1=O)C(=O)N[C@@H](CO)C(=O)N[C@@H](CCCCN)C(=O)N[C@@H]([C@@H](C)O)C(=O)NCC(=O)N[C@@H](CC(=O)O)C(=O)N3)NC(=O)[C@H](CO)NC(=O)[C@H](CC(C)C)NC(=O)[C@H](Cc1c[nH]cn1)NC(=O)[C@H](CO)NC2=O [HNTX-VIIa] (H-ECRYWLGTCSKTGDCCSHLSCSPKHGWCVWDWTF-NH2; disulfide 2-16, 9-21, 15-28)		0.047 ± 0.006 µM
